The values that follow come from patent EP1992347A1 (CELLZOME AG, priority 2007, dated 2008).

Test [1] addresses T1, receptor tyrosine kinase DDR1 (Homo sapiens, UniProt Q08345).
T1 construct: endogenous in cells; host or cells: K562 cells / K562 cell lysate
Description: kinobeads competition binding assay in K562 cell lysate (iTRAQ mass spectrometry, Western blot). The following applies: at 1 µM. Background: Immunoblotting shows a protein as a band on a membrane.
Description: From this dataset, dose-response binding profiles were computed.
All experiments were performed in duplicate.

The target of a further test is FAK (Homo sapiens, UniProt Q05397). The following applies: phage display studies, Fabian et al., 2005; cited from earlier work.
Sequence of FAK (Q05397 whole entry, species assumed): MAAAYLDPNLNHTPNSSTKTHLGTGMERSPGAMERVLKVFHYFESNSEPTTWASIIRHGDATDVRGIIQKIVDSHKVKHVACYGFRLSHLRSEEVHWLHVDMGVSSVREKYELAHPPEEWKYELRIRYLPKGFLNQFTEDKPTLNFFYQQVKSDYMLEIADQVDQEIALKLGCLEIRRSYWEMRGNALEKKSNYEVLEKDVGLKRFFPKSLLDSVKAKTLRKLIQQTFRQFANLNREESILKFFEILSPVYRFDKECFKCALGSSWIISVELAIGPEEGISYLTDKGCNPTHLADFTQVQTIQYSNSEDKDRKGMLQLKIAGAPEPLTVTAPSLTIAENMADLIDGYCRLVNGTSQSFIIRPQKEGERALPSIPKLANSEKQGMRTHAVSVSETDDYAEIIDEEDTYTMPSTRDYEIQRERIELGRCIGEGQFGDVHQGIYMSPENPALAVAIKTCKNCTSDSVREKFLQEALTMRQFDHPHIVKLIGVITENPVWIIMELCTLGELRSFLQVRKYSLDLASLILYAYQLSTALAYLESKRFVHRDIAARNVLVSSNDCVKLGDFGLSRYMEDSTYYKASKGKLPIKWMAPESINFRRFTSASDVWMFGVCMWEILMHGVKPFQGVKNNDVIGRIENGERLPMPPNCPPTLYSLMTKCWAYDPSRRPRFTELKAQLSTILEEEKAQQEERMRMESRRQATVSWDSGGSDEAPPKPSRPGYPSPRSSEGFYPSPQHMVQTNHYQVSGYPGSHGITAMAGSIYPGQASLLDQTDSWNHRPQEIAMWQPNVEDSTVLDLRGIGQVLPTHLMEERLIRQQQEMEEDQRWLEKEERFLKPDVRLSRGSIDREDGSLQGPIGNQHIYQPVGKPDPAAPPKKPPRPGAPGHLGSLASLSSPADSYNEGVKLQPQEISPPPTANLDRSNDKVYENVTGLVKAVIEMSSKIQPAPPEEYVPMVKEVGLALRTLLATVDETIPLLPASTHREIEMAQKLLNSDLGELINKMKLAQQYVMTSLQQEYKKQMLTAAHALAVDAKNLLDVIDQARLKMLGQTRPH

T1 sequence (Q08345 19-913): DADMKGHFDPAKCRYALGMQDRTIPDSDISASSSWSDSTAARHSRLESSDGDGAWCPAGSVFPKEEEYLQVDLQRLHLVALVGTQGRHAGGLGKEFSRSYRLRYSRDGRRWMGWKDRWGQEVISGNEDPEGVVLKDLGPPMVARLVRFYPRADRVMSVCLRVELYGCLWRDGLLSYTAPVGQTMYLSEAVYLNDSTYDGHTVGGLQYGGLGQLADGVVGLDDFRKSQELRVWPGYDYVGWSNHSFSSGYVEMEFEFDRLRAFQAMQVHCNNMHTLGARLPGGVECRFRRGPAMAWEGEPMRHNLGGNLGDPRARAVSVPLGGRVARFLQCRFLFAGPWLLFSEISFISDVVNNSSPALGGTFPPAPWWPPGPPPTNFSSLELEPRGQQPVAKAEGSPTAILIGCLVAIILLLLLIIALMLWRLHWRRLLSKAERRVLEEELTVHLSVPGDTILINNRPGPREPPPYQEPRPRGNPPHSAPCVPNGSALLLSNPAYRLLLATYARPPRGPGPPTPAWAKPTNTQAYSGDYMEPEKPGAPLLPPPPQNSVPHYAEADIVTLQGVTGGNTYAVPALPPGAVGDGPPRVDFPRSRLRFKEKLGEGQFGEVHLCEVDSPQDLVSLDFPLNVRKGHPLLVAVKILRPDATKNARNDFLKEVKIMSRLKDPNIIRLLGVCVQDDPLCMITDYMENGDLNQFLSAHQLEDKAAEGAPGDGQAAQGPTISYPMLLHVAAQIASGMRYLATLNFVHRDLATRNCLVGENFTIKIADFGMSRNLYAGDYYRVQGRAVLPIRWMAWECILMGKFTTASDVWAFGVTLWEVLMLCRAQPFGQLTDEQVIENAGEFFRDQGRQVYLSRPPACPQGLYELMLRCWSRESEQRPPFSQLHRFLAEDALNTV

Regarding `COc1cc(Nc2c(C#N)cnc3cc(OCCCN4CCN(C)CC4)c(OC)cc23)c(Cl)cc1Cl` [bosutinib], the competition in test [1] was more than 50%. Turning to `Cc1ccc(NC(=O)c2ccc(CN3CCN(C)CC3)cc2)cc1Nc1nccc(-c2cccnc2)n1` [imatinib, 4-(4-methylpiperazin-1-ylmethyl)-N-[4-methyl-3-(4-pyridin-3-yl)pyrimidin-2-ylamino)phenylbenzamide], at FAK, the “binding to FAK” value is reported as “no binding”.
